Some results are limits rather than exact numbers.

Here are results for one compound from patent US12661410B2, “Compounds for targeted degradation of RET” (C4 Therapeutics, Inc., priority 2020, dated 2026).

The assay addresses T1, RET (658-1114) (Homo sapiens, UniProt P07949).
T1 construct: 658-1114; expressed in transfected cells; host or cells: 293T.144 (293T cells, generated in-house)
T1 sequence (P07949 658-1114): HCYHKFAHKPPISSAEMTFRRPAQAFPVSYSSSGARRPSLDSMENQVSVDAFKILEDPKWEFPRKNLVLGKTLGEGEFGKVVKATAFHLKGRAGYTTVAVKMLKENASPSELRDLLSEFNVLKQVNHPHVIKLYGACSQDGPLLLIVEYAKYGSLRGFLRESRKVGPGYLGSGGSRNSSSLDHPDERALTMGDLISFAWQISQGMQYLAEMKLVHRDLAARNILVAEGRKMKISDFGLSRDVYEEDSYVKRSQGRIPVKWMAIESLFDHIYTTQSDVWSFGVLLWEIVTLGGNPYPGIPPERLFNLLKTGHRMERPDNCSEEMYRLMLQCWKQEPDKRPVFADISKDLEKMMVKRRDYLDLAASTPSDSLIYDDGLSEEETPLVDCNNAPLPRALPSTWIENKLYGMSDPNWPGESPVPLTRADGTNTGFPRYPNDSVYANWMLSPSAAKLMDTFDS
Put plainly: HiBiT-Degradation, RET wild-type degradation assay (Nano-Glo HiBiT Lytic), 293T.144 cells. It is filed as cell-based. In short, it runs like this: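 Degradation after 6 h compound exposure (top 10 μM, 11 half-log points, duplicates) measured by Nano-Glo HiBiT lytic luminescence. Cells: 293T.144 carrying wild-type and 293T.165 carrying G810R HiBiT-RET kinase domain; curves yield DC50 and Emax.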
(The HiBiT peptide binds its large partner to form an active luciferase.)

In general, Emax refers to the maximal effect, on the per cent scale that the assay sets. One may read the DC50 as the concentration at which degradation of the target reaches its halfway point. Consider `CCC1(C(=O)NC(C)C)CCN(c2ccc(-c3nc(-c4cnn([C@H]5CC[C@H](N6CCC(c7ccc(NC8CCC(=O)NC8=O)cc7F)CC6)CC5)c4)cn4ncc(C#N)c34)cn2)CC1` (single isomer, unassigned) [Compound 122, 1-(5-(3-cyano-6-(1-((1r, 4r)-4-(4-(4-((2,6-dioxopiperidin-3-yl)amino)-2-fluorophenyl)piperidin-1-yl)cyclohexyl)-1H-pyrazol-4-yl)pyrazolo[1,5-a]pyrazin-4-yl)pyridin-2-yl)-4-ethyl-N-isopropylpiperidine-4-carboxamide], for which the “293T.144 RET (658-1114) 6.0 hours (IP) [nM]” value is reported as “++++ (<50 nM = ++++)”. In addition, the Emax (6.0 hours, % remaining protein, read-out: 293T.144 RET (658-1114) 6.0 hours (Emax)) was under 30%. In addition, the DC50 (6.0 hours, half-maximal degradation concentration, read-out: 293T.144 RET (658-1114) 6.0 hours (DC50)) is under 50 nM.
